Legend:
[1] = target: T1, V-ATPase subunit A (TSCA mutant) in complex with subunit B (Mythimna separata, UniProt A0A0U1XFD8+A0AAD8DTT7, A0AAD8DTT7:C254A/A0AAD8DTT7:T257S); experiment: inhibition of ATP hydrolysis (inorganic phosphate release) by the purified complex; IC50 […], Ki calculated; CV was a suspension; format: biochemical
T1 construct: gene PYW07_012492; with V-ATPase subunit B

[2] = tested on: T2, Nc1ncnc2c1ncn2[C@@H]1O[C@H](COP(=O)(O)OP(=O)(O)OP(=O)(O)O)[C@@H](O)[C@H]1O; experiment: ATP hydrolysis kinetics (inorganic phosphate release), Lineweaver–Burk Km; format: biochemical, Mythimna separata; details: Mg2+ ([…] MgCl2) ATP binding site of the AB complex (by docking: D416, D436, K437, K438 of subunit A and T439 of subunit B)
T2 construct: with V-ATPase subunit B

T1 sequence (A0AAD8DTT7 1-617, stated change not applied): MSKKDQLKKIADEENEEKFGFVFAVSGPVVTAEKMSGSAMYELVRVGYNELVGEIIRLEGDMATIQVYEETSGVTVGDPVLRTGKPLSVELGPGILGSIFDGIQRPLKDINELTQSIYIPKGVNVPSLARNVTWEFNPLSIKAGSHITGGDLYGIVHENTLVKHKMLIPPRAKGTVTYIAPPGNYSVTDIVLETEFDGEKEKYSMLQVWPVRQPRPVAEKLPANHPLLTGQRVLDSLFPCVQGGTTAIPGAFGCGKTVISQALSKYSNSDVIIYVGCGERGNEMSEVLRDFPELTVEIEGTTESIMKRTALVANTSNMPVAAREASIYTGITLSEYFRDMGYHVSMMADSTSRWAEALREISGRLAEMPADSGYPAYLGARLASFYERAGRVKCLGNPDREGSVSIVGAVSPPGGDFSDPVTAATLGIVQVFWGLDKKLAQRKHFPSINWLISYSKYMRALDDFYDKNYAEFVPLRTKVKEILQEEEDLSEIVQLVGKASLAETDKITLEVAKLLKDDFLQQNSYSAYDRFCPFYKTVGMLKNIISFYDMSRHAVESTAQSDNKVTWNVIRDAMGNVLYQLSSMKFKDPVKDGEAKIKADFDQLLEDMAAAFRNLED
T1 sequence (A0A0U1XFD8 1-497): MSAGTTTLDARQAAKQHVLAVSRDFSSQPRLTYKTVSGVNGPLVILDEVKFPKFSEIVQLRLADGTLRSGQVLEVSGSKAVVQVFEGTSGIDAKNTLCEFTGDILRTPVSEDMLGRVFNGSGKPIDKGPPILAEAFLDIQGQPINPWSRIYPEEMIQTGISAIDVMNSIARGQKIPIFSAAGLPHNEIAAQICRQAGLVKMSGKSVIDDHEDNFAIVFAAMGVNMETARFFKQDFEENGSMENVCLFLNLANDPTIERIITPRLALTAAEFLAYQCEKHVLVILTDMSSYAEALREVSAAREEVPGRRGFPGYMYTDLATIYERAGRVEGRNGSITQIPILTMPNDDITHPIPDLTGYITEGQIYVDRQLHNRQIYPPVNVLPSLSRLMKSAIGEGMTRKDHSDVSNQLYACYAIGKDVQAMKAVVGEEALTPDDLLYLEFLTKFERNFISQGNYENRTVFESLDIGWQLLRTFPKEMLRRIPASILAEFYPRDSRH

## CC(=O)O[C@H]1C[C@](C)(O)C23OC(C)(C)[C@H]([C@H](OC(=O)C(C)C)[C@@H](OC(=O)c4ccccc4)[C@]2(COC(=O)C(C)C)[C@H]1OC(C)=O)[C@H]3O [CV, Celangulin V]
[1]
  Ki: 10 µM

## V-ATPase subunit A (TSCA mutant) in complex with subunit B (Mythimna separata; A0AAD8DTT7:C254A/A0AAD8DTT7:T257S)
[2]
  Km: 268 µM
